Reference: patent US20020028807A1, “Non-nucleoside reverse transcriptase inhibitors” (priority 2000, published 2002)

Assays:
HIV-1 RT Y188L = target: T1, HIV-1 RT Y188L (Human immunodeficiency virus type 1 group M subtype B, UniProt P03366, Y787L); assay: Reverse transcriptase (RT) assay, Y188L mutant; format: biochemical
T1 construct: an HIV RT clone pKRT2 containing only the RT p66 gene regulated by the lac operon/trc promoter; made in house; host or cells: E. coli JM109, vector pKK233-2
Description: (§1) Among the enzymes for which Human Immunodeficiency Virus (HIV-1) encodes is a reverse transcriptase (1), so-named because it transcribes a DNA copy from an RNA template. This activity can be quantitatively measured in a cell-free enzyme assay and is based upon the observation that reverse transcriptase is able to use a synthetic template poly r(C) primed with a biotinylated oligo d(G) to transcribe a radio-labelled DNA strand utilising 3H-dGTP as a substrate. The assay described below utilises the wild-type enzyme (which is the predominant form of the enzyme observed in patients infected with HIV-1) and can also be used with mutant RT enzymes (for example, Y181C, prepared by site-directed mutagenesis in which the tyrosine residue at codon 181 has been replaced by a cysteine residue) in analogous assay conditions. This assay allows compounds to be evaluated for their effectiveness at inhibiting the mutant enzymes.
(§2) Some HIV-1 IIIB clone BH10 RT mutants were provided by Dr. C.-K. Shih (Boehringer Ingelheim Pharmaceutials Inc., U.S.A.) in the vector pKK233-2 (Pharmacia). Briefly an HIV RT clone pKRT2 containing only the RT p66 gene regulated by the lac operon/trc promoter was obtained from Dr. W. Summers (Yale University) (2). A variety of specific amino acid substitutions were introduced into the wild-type RT gene by site-directed mutagenesis. RT clones were subcloned into the pKK233-2 bacterial expression vector. Clones provided included wild-type, Val106Ala, Tyr181Cys, Tyr188Cys, Tyr188Leu, Gly190Ala and Pro236Leu. Others were made in-house by site-directed mutagenesis of the pKK233-2 RT clones including Lys103Asn, Lys103Asn/Tyr181Cys, Lys103Asn/Leu100Ile, Lys103Asn/Pro225His, and Lys103Asn/Val108Ile.
(§3) Purification of recombinant reverse transcriptase was performed using a combination of methods previously described (3). A single colony from a fresh plate of transformed JM109 cells was used to initiate growth of a pre-culture grown o/n at 37° C. Two liters of growth medium were inoculated with this pre-culture. At OD600˜1.5 (5-6 h at 37° C.), RT gene expression was induced with IPTG (1 mM final), and the fermentation was continued for a few more hours at 37° C. After centrifugation, supernatants were discarded while cell pellets were pooled and stored at −80° C. until purification. Cells were thawed at 4° C. overnight and suspended in lysis buffer (MES 50 mM pH 6, EDTA 1 mM, 10% v/v glyerol, 0.02% w/v OBG, 0.02% w/v sodium azide). Lysozyme was added and the mixture was incubated on ice for 40 minutes. After homogenization using a bounce in presence of lysozyme and sonication, the cells were centrifuged for 30 minutes. Supernatant (S1) was saved and stored at 4° C. The centrifuged pellet was resuspended in extraction buffer (MES 50 mM pH 6, KPO4 50 mM pH 6, KCl 100 mM, 10% v/v glycerol, 0.02% w/v OBG, 0.02% w/v sodium axide) and stirred for 30 minutes at 4° C. This second mixture was centrifuged again and the supernatant (S2) was saved. The above procedure was repeated 2 more times saving supernatants S3 and S4 and one last extraction was performed overnight (S5). Polymin P (0.005% final) was added to the combined supernatants to remove nucleic acids. This solution was stirred for 75 minutes at 4° C. and centrifuged for 1 h. The supernatant (SS1) was precipitated on ice with 20% w/v ammonium sulfate and stirred for 1 h at 4° C. The mixture was then centrifuged and the resulting supernatant (SS2) was precipitated with additional 40% w/v ammonium sulfate (60% total), stirred for 1 h and centrifuged again. The final pellet (P1) was stored overnight at 4° C. before undergoing purification the following day. All steps of the purification were performed at 4° C. unless otherwise stated.
(§4) Pellet (P1) was resuspended into MES 50 mM pH 6, KPO4 10 mM pH 6, KCl 100 mM, 10% v/v glycerol, 0.02% w/v OBG, 0.02% w/v sodium azide. The suspension was dialysis against the same buffer overnight using 12-14 kD MWCO dialysis tubing. […]

HIV-1 RT K103N/L100I = target: T2, HIV-1 RT K103N/L100I (Human immunodeficiency virus type 1 group M subtype B, UniProt P03366, K702N/L699I); assay: Reverse transcriptase (RT) assay, K103N/L100I mutant; format: biochemical
T2 construct: an HIV RT clone pKRT2 containing only the RT p66 gene regulated by the lac operon/trc promoter; made in house; host or cells: E. coli JM109, vector pKK233-2
Description: as §1, §2, §3, §4

HIV-1 RT G190A = target: T3, HIV-1 RT G190A (Human immunodeficiency virus type 1 group M subtype B, UniProt P03366, G789A); assay: Reverse transcriptase (RT) assay, G190A mutant; format: biochemical
T3 construct: an HIV RT clone pKRT2 containing only the RT p66 gene regulated by the lac operon/trc promoter; made in house; host or cells: E. coli JM109, vector pKK233-2
Description: as §1, §2, §3, §4

HIV-1 RT wild-type (WT) = target: T4, HIV-1 RT wild-type (WT) (Human immunodeficiency virus type 1 group M subtype B, UniProt P03366); assay: Reverse transcriptase (RT) assay, wild-type enzyme; format: biochemical
T4 construct: an HIV RT clone pKRT2 containing only the RT p66 gene regulated by the lac operon/trc promoter; made in house; host or cells: E. coli JM109, vector pKK233-2
Description: as §1, §2, §3, §4

HIV-1 RT K103N/Y181C = target: T5, HIV-1 RT K103N/Y181C (Human immunodeficiency virus type 1 group M subtype B, UniProt P03366, K702N/Y780C); assay: Reverse transcriptase (RT) assay, K103N/Y181C mutant; format: biochemical
T5 construct: an HIV RT clone pKRT2 containing only the RT p66 gene regulated by the lac operon/trc promoter; made in house; host or cells: E. coli JM109, vector pKK233-2
Description: as §1, §2, §3, §4

HIV-1 RT V106A = target: T6, HIV-1 RT V106A (Human immunodeficiency virus type 1 group M subtype B, UniProt P03366, V705A); assay: Reverse transcriptase (RT) assay, V106A mutant; format: biochemical
T6 construct: an HIV RT clone pKRT2 containing only the RT p66 gene regulated by the lac operon/trc promoter; made in house; host or cells: E. coli JM109, vector pKK233-2
Description: as §1, §2, §3, §4

[1] = system: HIV coding for mutant reverse transcriptase Y188L; assay: ELISA (p24) assay of HIV replication in C8166 cell culture, Y188L virus; format: cell-based, HIV-1; conditions: Human immunodeficiency virus 1, C8166, 72 h, read-out: EC50 Y188L
Protocol: (§5) Compounds of the invention were tested for their ability to inhibit HIV replication in cell culture in a 96-well plate assay. Complete RPMI 1640, consisting of RPMI 1640+10% fetal bovine serum, 10 μg/ml gentamycin and 10 μM β-mercaptoethanol was used for dilution of the compound as well as cell growth medium. The T lymphocyte cell line C8166 was infected at a multiplicity of infection of 0.001 with viruses coding for wild-type and mutant reverse transcriptase. Cells were then incubated for three days in the presence of serial dilutions of the compounds of the invention. The supernatant was pooled from eight replica wells and the concentration of extracellular p24 was determined using a commercially available HIV-1 p24 antigen assay kit (Beckman-Coulter®). The level of inhibition (% inhibition) was calculated with the following equation: [formula]

[2] = system: HIV coding for mutant reverse transcriptase Y181C; assay: ELISA (p24) assay of HIV replication in C8166 cell culture, Y181C virus; format: cell-based, HIV-1; conditions: Human immunodeficiency virus 1, C8166, 72 h, read-out: EC50 Y181C
Protocol: as §5

[3] = system: HIV coding for wild-type reverse transcriptase (WT RT); assay: ELISA (p24) assay of HIV replication in C8166 cell culture, wild-type RT virus; format: cell-based, HIV-1; conditions: Human immunodeficiency virus 1, C8166, 72 h, read-out: EC50 WT RT
Protocol: as §5

HIV-1 RT K103N/V108I = target: T7, HIV-1 RT K103N/V108I (Human immunodeficiency virus type 1 group M subtype B, UniProt P03366, K702N/V707I); assay: Reverse transcriptase (RT) assay, K103N/V108I mutant; format: biochemical
T7 construct: an HIV RT clone pKRT2 containing only the RT p66 gene regulated by the lac operon/trc promoter; made in house; host or cells: E. coli JM109, vector pKK233-2
Description: as §1, §2, §3, §4

HIV-1 RT K103N/P225H = target: T8, HIV-1 RT K103N/P225H (Human immunodeficiency virus type 1 group M subtype B, UniProt P03366, K702N/P824H); assay: Reverse transcriptase (RT) assay, K103N/P225H mutant; format: biochemical
T8 construct: an HIV RT clone pKRT2 containing only the RT p66 gene regulated by the lac operon/trc promoter; made in house; host or cells: E. coli JM109, vector pKK233-2
Description: as §1, §2, §3, §4

[4] = system: HIV coding for mutant reverse transcriptase K103N/Y181C; assay: ELISA (p24) assay of HIV replication in C8166 cell culture, K103N/Y181C virus; format: cell-based, HIV-1; conditions: Human immunodeficiency virus 1, C8166, 72 h, read-out: EC50 K103N/Y181C
Protocol: as §5

HIV-1 RT Y188C = target: T9, HIV-1 RT Y188C (Human immunodeficiency virus type 1 group M subtype B, UniProt P03366, Y787C); assay: Reverse transcriptase (RT) assay, Y188C mutant; format: biochemical
T9 construct: an HIV RT clone pKRT2 containing only the RT p66 gene regulated by the lac operon/trc promoter; made in house; host or cells: E. coli JM109, vector pKK233-2
Description: as §1, §2, §3, §4

[5] = system: HIV coding for mutant reverse transcriptase V106A; assay: ELISA (p24) assay of HIV replication in C8166 cell culture, V106A virus; format: cell-based, HIV-1; conditions: Human immunodeficiency virus 1, C8166, 72 h, read-out: EC50 V106A
Protocol: as §5

[6] = system: HIV coding for mutant reverse transcriptase K103N; assay: ELISA (p24) assay of HIV replication in C8166 cell culture, K103N virus; format: cell-based, HIV-1; conditions: Human immunodeficiency virus 1, C8166, 72 h, read-out: EC50 K103N
Protocol: as §5

HIV-1 RT Y181C = target: T10, HIV-1 RT Y181C (Human immunodeficiency virus type 1 group M subtype B, UniProt P03366, Y780C); assay: Reverse transcriptase (RT) assay, Y181C mutant; format: biochemical
T10 construct: an HIV RT clone pKRT2 containing only the RT p66 gene regulated by the lac operon/trc promoter; made in house; host or cells: E. coli JM109, vector pKK233-2
Description: as §1, §2, §3, §4

HIV-1 RT K103N = target: T11, HIV-1 RT K103N (Human immunodeficiency virus type 1 group M subtype B, UniProt P03366, K702N); assay: Reverse transcriptase (RT) assay, K103N mutant; format: biochemical
T11 construct: an HIV RT clone pKRT2 containing only the RT p66 gene regulated by the lac operon/trc promoter; made in house; host or cells: E. coli JM109, vector pKK233-2
Description: as §1, §2, §3, §4

CCN1c2ncc(CCOc3ccnc4ccccc34)cc2C(=O)N(C)c2cccnc21 [compound 24, 5,11-Dihydro-11-ethyl-5-methyl-8-{2-(4-quinolinyloxy)ethyl}-6H-dipyrido[3,2-b:2′,3′-e][1,4]diazepin-6-one]
IC50 (HIV-1 RT Y188L): 627 nM | IC50 (HIV-1 RT K103N/L100I): 169 nM | IC50 (HIV-1 RT G190A): 25 nM | IC50 (HIV-1 RT wild-type (WT)): 5.6 nM | IC50 (HIV-1 RT K103N/Y181C): 70 nM | IC50 (HIV-1 RT V106A): 344 nM

CCN1c2ncc(CCOc3cc[n+]([O-])c4ccccc34)cc2C(=O)N(C)c2ccc(C)nc21 [compound 28, 2,5-Dimethyl-5,11-dihydro-11-ethyl-8-{2-{(1-oxido-4-quinolinyl)oxy}ethyl}-6H-dipyrido[3,2-b:2′,3′-e][1,4]diazepin-6-one]
EC50 [1]: 70 nM | EC50 [2]: 2.6 nM | IC50 (HIV-1 RT Y188L): 1190 nM | EC50 [3]: 1.3 nM | IC50 (HIV-1 RT K103N/V108I): 35 nM | IC50 (HIV-1 RT K103N/L100I): 28 nM | IC50 (HIV-1 RT G190A): 25 nM | IC50 (HIV-1 RT wild-type (WT)): 19 nM | IC50 (HIV-1 RT K103N/Y181C): 141 nM | IC50 (HIV-1 RT V106A): 605 nM | IC50 (HIV-1 RT K103N/P225H): 25 nM | EC50 [4]: 7.5 nM | IC50 (HIV-1 RT Y188C): 9 nM | EC50 [5]: 42 nM | EC50 [6]: 2.3 nM

CCN1C(=O)c2cc(CCOc3ccnc4ccccc34)cnc2N(CC)c2ncccc21 [compound 26, 5,11-Dihydro-5,11-diethyl-8-{2-(4-quinolinyloxy)ethyl}-6H-dipyrido[3,2-b:2′,3′-e][1,4]diazepin-6-one]
IC50 (HIV-1 RT Y188L): 5200 nM | EC50 [3]: 2.2 nM | IC50 (HIV-1 RT K103N/V108I): 443 nM | IC50 (HIV-1 RT wild-type (WT)): 8.9 nM | IC50 (HIV-1 RT K103N/Y181C): 200 nM | IC50 (HIV-1 RT Y181C): 51 nM | IC50 (HIV-1 RT V106A): 1750 nM | IC50 (HIV-1 RT K103N/P225H): 85 nM | IC50 (HIV-1 RT Y188C): 147 nM | IC50 (HIV-1 RT K103N): 40 nM
